Active and inactive are the calls of the source. No cut-off for these calls is given here.
Assays:
[1] = Binding affinity to human StrepTag-Avi-CRBN-His6-Spy-fused DDB1deltaB mutant complex expressed in baculovirus infected high-five insect cells assessed as labeling of His353 residue at 15 uM measured after 24 hrs by LC-MS analysis relative to control; settings: Insect cell
[2] = Stability of the compound in human plasma assessed as half life at 1 uM by LC-MS/MS analysis; format: ADME, cell-free
Protein cereblon = Protein cereblon (Homo sapiens, UniProt Q96SW2); assay: Displacement of BODIPY-lenalidomide from human N-terminal NanoLuc-fused CRBN expressed in HEK293T cells incubated for 2 hrs by NanoBRET assay; format: cell-based
[3] = Stability of the compound in human hepatocytes assessed as half life at […] by LC-MS/MS analysis; format: ADME, cell-based, Hepatocyte
[4] = Cytotoxicity against human MOLT-4 cells assessed as reduction in cell viability incubated for 24 hrs by CellTiter Glo Luminescent cell viability assay; format: toxicity, cell-based
[5] = Drug metabolism in human plasma assessed as sulfonyl imidazole motif hydrolysis at 10 uM measured after 120 mins by LC-UV-MS analysis; format: ADME, cell-free; settings: 2 h
[6] = Stability of the compound in human liver microsomes assessed as half life at 1 uM by LC-MS/MS analysis; format: ADME, Microsome
[7] = Drug metabolism in human plasma assessed as glutarimide-hydrolysis at 10 uM measured after 120 mins by LC-UV-MS analysis; format: ADME, cell-free; settings: 2 h
MOLT-4 = assay: Induction of protein degradation in human MOLT-4 cells at 1 uM measured after 5 hrs by LC-MS analysis; format: functional, cell-based

Sequence of Protein cereblon (Q96SW2 whole entry, the tested form may be a part): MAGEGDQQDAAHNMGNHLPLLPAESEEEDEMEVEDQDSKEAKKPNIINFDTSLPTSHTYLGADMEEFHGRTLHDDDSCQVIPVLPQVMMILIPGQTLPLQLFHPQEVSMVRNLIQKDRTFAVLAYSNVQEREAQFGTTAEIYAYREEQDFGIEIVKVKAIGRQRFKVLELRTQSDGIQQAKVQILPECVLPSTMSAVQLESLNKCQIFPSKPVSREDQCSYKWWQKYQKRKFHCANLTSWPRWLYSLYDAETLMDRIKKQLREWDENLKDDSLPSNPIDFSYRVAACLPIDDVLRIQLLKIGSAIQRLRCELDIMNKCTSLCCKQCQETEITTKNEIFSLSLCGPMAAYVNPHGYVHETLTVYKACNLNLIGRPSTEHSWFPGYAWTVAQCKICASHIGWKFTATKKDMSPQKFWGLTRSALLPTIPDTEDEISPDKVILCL

**Q.** With `O=C1CCC(N2Cc3ccc(OS(=O)(=O)F)cc3C2=O)C(=O)N1` (centres undefined) as the compound, how does the Activity [1] read?
**A.** 75%

**Q.** With `Cc1cnn(S(=O)(=O)c2ccc3c(c2)C(=O)N(C2CCC(=O)NC2=O)C3)c1` (centres undefined) as the compound, how does the half-life at 1 µM [2] read?
**A.** > 4.82 h

**Q.** And the Activity [1]?
**A.** < 5%

**Q.** For `O=C1CCC(N2Cc3ccc(S(=O)(=O)n4cnc(F)c4)cc3C2=O)C(=O)N1` (centres undefined), which half-life at 1 µM [2] is on record?
**A.** 0.317 h

**Q.** What about the Activity [1] of the same compound?
**A.** 90%

**Q.** Which half-life at 1 µM [2] does the source give for `Nc1ccn(S(=O)(=O)c2ccc3c(c2)C(=O)N(C2CCC(=O)NC2=O)C3)c(=O)n1` (centres undefined) here?
**A.** > 4.82 h

**Q.** What about the Activity [1] of the same compound?
**A.** 55%

**Q.** What does the source list for `O=C1CCC(N2Cc3ccc(S(=O)(=O)n4ccc(C(F)(F)F)n4)cc3C2=O)C(=O)N1` (centres undefined)?
**A.** half-life at 1 µM [2]: 0.233 h; Activity [1]: 90%

**Q.** What does the source list for `Cc1cn(S(=O)(=O)c2ccc3c(c2)C(=O)N(C2CCC(=O)NC2=O)C3)c(=O)[nH]c1=O` (centres undefined)?
**A.** half-life at 1 µM [2]: 3.98 h; Activity [1]: 90%

**Q.** For `O=C1CCC(N2Cc3ccc(S(=O)(=O)n4cc(C(F)(F)F)cn4)cc3C2=O)C(=O)N1` (centres undefined), which half-life at 1 µM [2] is on record?
**A.** 0.167 h

**Q.** What about the Activity [1] of the same compound?
**A.** 90%

**Q.** With `Cc1cn(S(=O)(=O)c2ccc3c(c2)C(=O)N(C2CCC(=O)NC2=O)C3)cn1` (centres undefined) as the compound, how does the half-life at 1 µM [2] read?
**A.** 4.78 h

**Q.** And the Activity [1]?
**A.** < 5%

**Q.** Which half-life at 1 µM [2] does the source give for `O=C1CCC(N2Cc3ccc(S(=O)(=O)n4cnc(C(F)(F)F)c4)cc3C2=O)C(=O)N1` (centres undefined) here?
**A.** 0.108 h

**Q.** What about the Activity [1] of the same compound?
**A.** 75%

**Q.** With `O=C1CCC(N2Cc3ccc(S(=O)(=O)F)cc3C2=O)C(=O)N1` (centres undefined) as the compound, how does the IC50 (Protein cereblon) read?
**A.** 0.0011 µM

**Q.** What about the Activity [1] of the same compound?
**A.** > 95%

**Q.** For `O=C1CCC(N2Cc3ccccc3C2=O)C(=O)N1` (centres undefined), which half-life [3] is on record?
**A.** > 3.62 h

**Q.** And the CC50 at 24 h [4]?
**A.** > 10 µM

**Q.** And the Drug metabolism [5]?
**A.** Metabolite_Detected

**Q.** What about the half-life at 1 µM [6] of the same compound?
**A.** > 2.42 h

**Q.** And the Drug metabolism [7]?
**A.** Metabolite_Detected

**Q.** With `O=C1CCC(N2Cc3ccc(S(=O)(=O)n4ccnc4)cc3C2=O)C(=O)N1` (centres undefined) as the compound, how does the half-life [3] read?
**A.** > 3.62 h

**Q.** What about the CC50 at 24 h [4] of the same compound?
**A.** > 10 µM

**Q.** What about the half-life at 1 µM [2] of the same compound?
**A.** 1.57 h

**Q.** What about the Activity [1] of the same compound?
**A.** > 95%

**Q.** And the half-life at 1 µM [6]?
**A.** > 2.42 h

**Q.** What about the Activity (MOLT-4) of the same compound?
**A.** inactive

**Q.** For `O=C1CCC(N2Cc3ccc(S(=O)(=O)n4ccc(=O)[nH]c4=O)cc3C2=O)C(=O)N1` (centres undefined), which half-life at 1 µM [2] is on record?
**A.** 2.72 h

**Q.** What about the Activity [1] of the same compound?
**A.** 90%

**Q.** Which results are given for `O=C1CCC(N2Cc3ccc(S(=O)(=O)n4ccc(F)n4)cc3C2=O)C(=O)N1` (centres undefined)?
**A.** half-life at 1 µM [2]: 1.92 h; Activity [1]: 37%

**Q.** With `O=C1CCC(N2Cc3ccc(S(=O)(=O)n4cncn4)cc3C2=O)C(=O)N1` (centres undefined) as the compound, how does the half-life at 1 µM [2] read?
**A.** < 0.0167 h

**Q.** And the Activity [1]?
**A.** 90%

**Q.** With `O=C1CCC(N2Cc3ccc(S(=O)(=O)n4nccn4)cc3C2=O)C(=O)N1` (centres undefined) as the compound, how does the Activity [1] read?
**A.** 90%

**Q.** Which half-life at 1 µM [2] does the source give for `O=C1CCC(N2Cc3ccc(S(=O)(=O)n4cc(F)cn4)cc3C2=O)C(=O)N1` (centres undefined) here?
**A.** 1.53 h

**Q.** What about the Activity [1] of the same compound?
**A.** 67%

Source: ChEMBL document CHEMBL5370678, “Covalent Stapling of the Cereblon Sensor Loop Histidine Using Sulfur-Heterocycle Exchange” (ACS Med Chem Lett, 2023)
